The values that follow come from PMC8389807 (Journal of Medicinal Chemistry, 2021).

The test system of series [1] is BrCr Lab Strain of EV-A71. In words: Antiviral activity against the BrCr lab strain of EV-A71 in RD cells (CPE reduction, MTS/PMS). The series is classed as cell-based. Particulars: Enterovirus A.
Series [2] relates to EV71 genogroup C2 strain H08300 461#812. In words: microbe, parasite or virus in culture. The series is classed as cell-based. The settings on record: Enterovirus A, genogroup C2, strain H08300 461#812, RD cells.
The subject of another series is HIV. Also on record: method as in PMID 26513643, PMID 31809045. Particulars: Figure 1, earlier prototypes; cited from earlier work.
Series [3] has as its system EV71 genogroup B2 strain 11316. In words: microbe, parasite or virus in culture. Particulars: Enterovirus A, genogroup B2, strain 11316, RD cells. The series is classed as cell-based.
Series [4] concerns EV71 genogroup B5 strain TW/70902/08. In words: microbe, parasite or virus in culture. Type of series: cell-based. The settings on record: Enterovirus A, genogroup B5, strain TW/70902/08, RD cells.
Series [5] relates to EV71 genogroup C4 strain TW/1956/05. In words: microbe, parasite or virus in culture. Particulars: Enterovirus A, genogroup C4, strain TW/1956/05, RD cells. Type of series: cell-based.
For a further series, the system named is EV71. More on the design: method as in PMID 27246775, PMID 31809045. The settings on record: Figure 1, earlier prototypes; cited from earlier work.
A further series relates to HIV-2 (ROD). In words: Anti-HIV-2 activity in MT-4 cells (CPE, MTS/PES). Type of series: cell-based.
Series [6] has as its system HIV-1 (NL4.3). In words: microbe, parasite or virus in culture. Type of series: cell-based. The settings on record: MT-4 cells, 50% reduction of virus-induced cytopathic effect. For orientation: Damage to the host cells serves as the signal in cytopathic effect assays.
A further series relates to HIV-1 (Ba-L). Kind of series: microbe, parasite or virus in culture. The settings on record: CCR5-tropic strain, PBMC, read-out: HIV-1 (Ba-L) EC50. Type of series: cell-based.
The test system of series [7] is HIV-1 (NL4.3). Kind of series: microbe, parasite or virus in culture. Particulars: CXCR4-tropic strain, PBMC; for EC50: read-out: HIV-1 (NL4.3) EC50. The series is classed as cell-based.
The nature of series [8]: in vitro. Particulars: human.
Series [9] is described as follows: in vitro. The settings on record: human. The source holds these as a separate data set.
The nature of series [10]: Cytotoxicity in MT-4 cells (MTS/PES). The settings on record: human.
[11] abbreviates: EVA71, RD, BrCr lab strain, RD cells, 50% reduction of virus-induced CPE, read-out: EC50.
Setting [12] is: Human immunodeficiency virus 2, MT4, MT-4 cells, 50% reduction of virus-induced cytopathic effect, read-out: HIV-2 (ROD) EC50.
Where [13] appears, read: Human immunodeficiency virus 1, MT4.

Read-outs that look alike come from different tables or passages of the source.

For the compound `O=C(CCC(CCC(=O)NC(Cc1c(-c2cc(C(=O)O)cc(C(=O)O)c2)[nH]c2ccccc12)C(=O)O)(CCC(=O)NC(Cc1c(-c2cc(C(=O)O)cc(C(=O)O)c2)[nH]c2ccccc12)C(=O)O)[N+](=O)[O-])NC(Cc1c(-c2cc(C(=O)O)cc(C(=O)O)c2)[nH]c2ccccc12)C(=O)O` (stereo not shown) [AL-470, reference compound], the EC50 – broadly, the concentration needed to bring the measured effect to its halfway point – in series [1] (setting [11]) was 0.3 ± 0.03 µM; in [1] (EVA71, RD, genogroup A, BrCr, RD cells (clinical isolate panel), read-out: EC50), 0.353 ± 0.031 µM; in series [2], 0.057 ± 0.0002 µM; in the series with HIV, 0.27 ± 0.12 µM; in [3], 0.179 ± 0.011 µM; in series [4] it was 0.081 ± 0.013 µM. Besides, the EC50 in series [5] is 0.038 ± 0.003 µM; in the series with EV71, 0.35 ± 0.03 µM; in the series with HIV-2 (ROD) (setting [12]), 0.6 ± 0.8 µM; in the series on HIV-1 (NL4.3) [6] (setting [13]) it was 0.3 ± 0.1 µM.

Turning to `c1cc(CN2CCCNCCNCCCNCC2)ccc1CN1CCCNCCNCCCNCC1` [AMD3100], the EC50 was greater than 1000 ng/mL with HIV-1 (Ba-L) (Human immunodeficiency virus 1, BAL) and 3.57 ng/mL in the series on HIV-1 (NL4.3) [7] (Human immunodeficiency virus 1).

With `O=C(CCC(CCC(=O)NC(Cc1c[nH]c2c(-c3cccc(C(=O)O)c3)cccc12)C(=O)O)(CCC(=O)NC(Cc1c[nH]c2c(-c3cccc(C(=O)O)c3)cccc12)C(=O)O)[N+](=O)[O-])NC(Cc1c[nH]c2c(-c3cccc(C(=O)O)c3)cccc12)C(=O)O` (stereo not shown) [Compound 14], the EC50 in [1] (setting [11]) is 54.8 ± 34.1 µM; in the series on HIV-2 (ROD) (setting [12]), greater than 30 µM; with HIV-1 (NL4.3) [6] (setting [13]), 45.1 ± 10.2 µM. For the same compound, the CC50 is greater than 100 µM in “in vitro [8]” and greater than 84 µM in “in vitro [9]”.

With `O=C(CCC(CCC(=O)NC(Cc1c[nH]c2c(-c3cc(C(=O)O)cc(C(=O)O)c3)cccc12)C(=O)O)(CCC(=O)NC(Cc1c[nH]c2c(-c3cc(C(=O)O)cc(C(=O)O)c3)cccc12)C(=O)O)[N+](=O)[O-])NC(Cc1c[nH]c2c(-c3cc(C(=O)O)cc(C(=O)O)c3)cccc12)C(=O)O` (stereo not shown) [Compound 16], the EC50 in [1] (setting [11]) worked out at 1.2 ± 0.2 µM; in the series with HIV-2 (ROD) (setting [12]) it was 1.9 ± 0.4 µM; in the series on HIV-1 (NL4.3) [6] (setting [13]), 0.4 ± 0.2 µM.

As to `O=C(CCOCC(COCCC(=O)NC(Cc1c[nH]c2c(-c3cccc(C(=O)O)c3)cccc12)C(=O)O)(COCCC(=O)NC(Cc1c[nH]c2c(-c3cccc(C(=O)O)c3)cccc12)C(=O)O)COCCC(=O)NC(Cc1c[nH]c2c(-c3cccc(C(=O)O)c3)cccc12)C(=O)O)NC(Cc1c[nH]c2c(-c3cccc(C(=O)O)c3)cccc12)C(=O)O` (stereo not shown) [Compound 21], the EC50 in series [1] (setting [11]) worked out at 3.1 ± 1.1 µM; in the series with HIV-2 (ROD) (setting [12]), 7.9 ± 0.9 µM; in the series on HIV-1 (NL4.3) [6] (setting [13]), 14.1 ± 0.6 µM.

For the compound `O=C(CCOCC(COCCC(=O)NC(Cc1c[nH]c2c(-c3ccc(C(=O)O)cc3)cccc12)C(=O)O)(COCCC(=O)NC(Cc1c[nH]c2c(-c3ccc(C(=O)O)cc3)cccc12)C(=O)O)COCCC(=O)NC(Cc1c[nH]c2c(-c3ccc(C(=O)O)cc3)cccc12)C(=O)O)NC(Cc1c[nH]c2c(-c3ccc(C(=O)O)cc3)cccc12)C(=O)O` (stereo not shown) [Compound 22], the EC50 in series [1] (setting [11]) is 1.7 ± 0.4 µM; in the series on HIV-2 (ROD) (setting [12]) it was 0.4 ± 0.3 µM; in the series with HIV-1 (NL4.3) [6] (setting [13]), 6.5 ± 2.5 µM. Also, the CC50 in “in vitro [8]” and in the series “in vitro [9]” was greater than 100 µM each time.

On to `O=C(CCOCC(COCCC(=O)NC(Cc1c[nH]c2c(-c3cc(C(=O)O)cc(C(=O)O)c3)cccc12)C(=O)O)(COCCC(=O)NC(Cc1c[nH]c2c(-c3cc(C(=O)O)cc(C(=O)O)c3)cccc12)C(=O)O)COCCC(=O)NC(Cc1c[nH]c2c(-c3cc(C(=O)O)cc(C(=O)O)c3)cccc12)C(=O)O)NC(Cc1c[nH]c2c(-c3cc(C(=O)O)cc(C(=O)O)c3)cccc12)C(=O)O` (stereo not shown) [Compound 23], for which the EC50 in series [1] (setting [11]) came out at 0.3 ± 0.04 µM; with HIV-2 (ROD) (setting [12]) it was 0.02 ± 0.02 µM; in the series on HIV-1 (NL4.3) [6] (setting [13]), 0.02 ± 0.01 µM. Moreover, in “in vitro [8]”, the CC50 at 120 h is 75 µM. In addition, the CC50 in “in vitro [9]” was greater than 55 µM.

`O=C(CCOCC(COCCC(=O)NC(Cc1c(-c2ccc(C(=O)O)cc2)[nH]c2c(-c3ccc(C(=O)O)cc3)cccc12)C(=O)O)(COCCC(=O)NC(Cc1c(-c2ccc(C(=O)O)cc2)[nH]c2c(-c3ccc(C(=O)O)cc3)cccc12)C(=O)O)COCCC(=O)NC(Cc1c(-c2ccc(C(=O)O)cc2)[nH]c2c(-c3ccc(C(=O)O)cc3)cccc12)C(=O)O)NC(Cc1c(-c2ccc(C(=O)O)cc2)[nH]c2c(-c3ccc(C(=O)O)cc3)cccc12)C(=O)O` (stereo not shown) [Compound 32]: the EC50 in series [1] (setting [11]) was 0.1 ± 0.02 µM; with HIV-2 (ROD) (setting [12]), 0.02 ± 0.02 µM; in the series on HIV-1 (NL4.3) [6] (setting [13]) it was 0.2 ± 0.2 µM. Moreover, the CC50 in the series “in vitro [8]” and in “in vitro [9]” was greater than 100 µM each time.

`NC(Cc1c(-c2cc(C(=O)O)cc(C(=O)O)c2)[nH]c2c(-c3cc(C(=O)O)cc(C(=O)O)c3)cc(-c3cc(C(=O)O)cc(C(=O)O)c3)cc12)C(=O)O` (stereo not shown) [Compound 37, 5,5′,5″-(3-(2-Amino-2-carboxyethyl)-1H-indole-2,5,7-triyl)triisophthalic Acid]: the EC50 in [1] (EVA71, RD) was greater than 90 µM; in the series on HIV-2 (ROD) (Human immunodeficiency virus 2, MT4, read-out: HIV-2 (ROD) EC50), greater than 100 µM; in the series with HIV-1 (NL4.3) [6] (setting [13]), greater than 100 µM. This compound also had a CC50 at 5 days in [10] greater than 100 µM.

Compound `O=C(CCC(CCC(=O)NC(Cc1c(-c2cccc(C(=O)O)c2)[nH]c2ccccc12)C(=O)O)(CCC(=O)NC(Cc1c(-c2cccc(C(=O)O)c2)[nH]c2ccccc12)C(=O)O)[N+](=O)[O-])NC(Cc1c(-c2cccc(C(=O)O)c2)[nH]c2ccccc12)C(=O)O` (stereo not shown) [I, reference compound] registered a CC50 in the series “in vitro [8]” greater than 100 µM. Also, the EC50 in the series with HIV-2 (ROD) (setting [12]) was 64 ± 28 µM; with HIV-1 (NL4.3) [6] (setting [13]), 16 ± 5.7 µM.

Consider `O=C(CCC(CCC(=O)NC(Cc1c(-c2ccc(C(=O)O)cc2)[nH]c2ccccc12)C(=O)O)(CCC(=O)NC(Cc1c(-c2ccc(C(=O)O)cc2)[nH]c2ccccc12)C(=O)O)[N+](=O)[O-])NC(Cc1c(-c2ccc(C(=O)O)cc2)[nH]c2ccccc12)C(=O)O` (stereo not shown) [II, reference compound], for which the CC50 in the series “in vitro [8]” is 71 µM. For the same compound, the figures for the EC50 with HIV-2 (ROD) (setting [12]) and in the series with HIV-1 (NL4.3) [6] (setting [13]) were greater than 71 µM and 2.4 ± 1.3 µM, respectively.

Take `O=C(CCOCC(COCCC(=O)NC(Cc1c(-c2cccc(C(=O)O)c2)[nH]c2ccccc12)C(=O)O)(COCCC(=O)NC(Cc1c(-c2cccc(C(=O)O)c2)[nH]c2ccccc12)C(=O)O)COCCC(=O)NC(Cc1c(-c2cccc(C(=O)O)c2)[nH]c2ccccc12)C(=O)O)NC(Cc1c(-c2cccc(C(=O)O)c2)[nH]c2ccccc12)C(=O)O` (stereo not shown) [III, reference compound]: the CC50 in “in vitro [8]” was greater than 100 µM. For the same compound, the concentration for a half-maximal effect (EC50) came out at 0.8 ± 0.5 µM in the series with HIV-2 (ROD) (setting [12]) and 2 ± 0.6 µM in the series on HIV-1 (NL4.3) [6] (setting [13]).

`O=C(CCOCC(COCCC(=O)NC(Cc1c(-c2ccc(C(=O)O)cc2)[nH]c2ccccc12)C(=O)O)(COCCC(=O)NC(Cc1c(-c2ccc(C(=O)O)cc2)[nH]c2ccccc12)C(=O)O)COCCC(=O)NC(Cc1c(-c2ccc(C(=O)O)cc2)[nH]c2ccccc12)C(=O)O)NC(Cc1c(-c2ccc(C(=O)O)cc2)[nH]c2ccccc12)C(=O)O` (stereo not shown) [IV, reference compound] showed a CC50 in “in vitro [8]” greater than 100 µM. Further, the EC50 amounted to 0.7 ± 0.8 µM with HIV-2 (ROD) (setting [12]) and 0.7 ± 0.5 µM in the series with HIV-1 (NL4.3) [6] (setting [13]).

In series [10], `CN[C@@H]1[C@H](O[C@@H]2OC[C@@H](O)[C@H](O)[C@H]2O)[C@@H](O)[C@H](O[C@H]2c3cc(C)c(C(=O)N[C@H](C)C(=O)O)c(O)c3-c3c(cc4c(c3O)C(=O)c3cc(OC)cc(O)c3C4=O)[C@@H]2O)O[C@@H]1C` [PRM-A, pradimicin A, reference compound] registered a CC50 at 5 days greater than 100 µM. Also, the EC50 in the series on HIV-2 (ROD) (setting [12]) is 5.9 ± 3.7 µM; in the series on HIV-1 (NL4.3) [6] (setting [13]), 3.3 ± 1.2 µM.

With `CCOC(=O)c1ccc(OCCC2CCN(c3ccc(C)nn3)CC2)cc1` [pirodavir, reference compound], the concentration for a half-maximal effect (EC50) in series [1] (EVA71, BrCr lab strain, RD cells, 50% reduction of virus-induced CPE, read-out: EC50) is 0.3 ± 0.1 µM. The compound also gave a CC50 at 3 days in the series “in vitro [9]” greater than 100 µM.

With “dextran sulfate-5000 [DS-5000, reference compound]”, the EC50 worked out at 0.03 ± 0.01 µM in the series with HIV-2 (ROD) (MT-4 cells, 50% reduction of virus-induced cytopathic effect, read-out: HIV-2 (ROD) EC50) and 0.07 ± 0.02 µM in the series on HIV-1 (NL4.3) [6].

Consider maraviroc, for which the EC50 in the series on HIV-1 (Ba-L) came to 0.00448 µM. In the series on HIV-1 (NL4.3) [7], the “HIV-1 (NL4.3) EC50” value is recorded as “insensitive” and the EC50 was greater than 1 µM.
